Values quoted from earlier work, collected in patent US7879371B2 (priority 2002, dated 2011).
Read-outs that look alike come from different tables or passages of the source.

Columns and labels:
[1] = tested on: A. tumefaciens nopaline type strains T37 and C58
[2] = tested on: A. tumefaciens str. A348 (pSM358) virE::lacZ
[3] = tested on: A. tumefaciens vir genes, strain A348 (pSM243cd); conditions: for vir gene induction efficiency versus corresponding phenolic acids: strain A348 (pSM243cd), only above 100 μM
[4] = cultures of strains C58F and T37

COc1cc(C=CC(=O)O)cc(OC)c1O (stereo in doubt) [sinapinic acid]
growth of A. tumefaciens strains [1, 4]: inhibited growth

COc1cc(C(C)=O)cc(OC)c1O[C@H]1O[C@@H](C)[C@@H](O)[C@@H](O)[C@@H]1O [Acetosyringonyl beta-L-fucopyranoside]
vir-inducing activity ([2]; 13 synthetic beta-glycosides compared): most active monoglycoside tested | toxic effects ([2]; even at high concentrations): devoid of toxic effects

COc1cc(C(C)=O)cc(OC)c1O [acetosyringone]
growth of A. tumefaciens strains [1]: inhibited the growth

COc1cc(C=O)cc(OC)c1O[C@@H]1O[C@H](CO)[C@@H](O[C@H]2O[C@H](CO)[C@@H](O)[C@H](O)[C@H]2O)[C@H](O)[C@H]1O [beta-maltoside of syringaldehyde]
vir-inducing activity versus free phenol ([2]; at high concentrations): higher activity than the free phenol

CCNC(=O)/C=C/c1ccc(O)c(OC)c1 [ethylferulamide]
vir gene induction efficiency versus corresponding phenolic acids [3]: more efficient than the corresponding phenolic acids

CCNC(=O)/C=C/c1cc(OC)c(O)c(OC)c1 [ethylsinapamide]
vir gene induction efficiency versus corresponding phenolic acids [3]: more efficient than the corresponding phenolic acids

CCNC(=O)c1cc(OC)c(O)c(OC)c1 [ethylsyringamide]
vir gene induction activity versus acetosyringone ([3]; concentrations above 1 mM): higher activity than acetosyringone

COc1cc(C=O)cc(OC)c1O [syringaldehyde]
growth of A. tumefaciens strains [1, 4]: inhibited growth
